Measurements as given in US20230146455A1, “TREATMENT OF INFLAMMATORY DISEASES WITH PEPTIDES AND PHARMACEUTICAL COMPOSITIONS” (Yuyu Pharma, Inc., priority 2020, published 2023).
Several values for one entry are separate records, joined by “and”; a condition that tells them apart may be missing. Equal values may be shown once. Where a SMILES comes first, the peptide text is derived from it. [ ]: non-standard residue; d: D form. Hyp = O=C(O)[C@@H]1C[C@@H](O)CN1

Test system: IL-8/CXCL8
Assay: Example 8 main study Luminex, LPS hPBMCs: IL-8/CXCL8
Format: cell-based, human
Settings: for LPS-induced IL-8 (in words): at as low as 5 μM, LPS 5 ug/mL 24 hrs
Experimental: Human PBMCs were pretreated with YY-101, YDE-011, YDE-043 or reference compound; Xiidra® at various concentration (ranging from […] to 500 nM) for 2 h before stimulation. An equal volume of 0.5% DMSO was used as a vehicle control. Then, the cells were treated with LPS at 5 ug/ml, which was selected based on the pilot study. The supernatants from treated cells were harvested at 24 h and placed in a 96 well for Luminex cytokine & chemokine profiling using a Luminex 200 multiplex assay (Luminex; R&D system, USA).
The main study arm with triplicate wells per group in a 24-well plate: • 1. Blank • 2. PBMC: 0.5% DMSO • 3. PBMC+LPS (5 ug/ml) • 4. PBMC+YY-101 500 nM • 5. PBMC+YY-101 50 nM • 6. PBMC+YY-101 5 nM • 7. PBMC+YY-101 0.5 nM • 8. PBMC+LPS (5 ug/ml)+Xiidra® 500 nM • 9. PBMC+LPS (5 ug/ml)+Xiidra® 50 nM • 10. PBMC+LPS (5 ug/ml)+Xiidra® 5 nM • 11. PBMC+LPS (5 ug/ml)+Xiidra® 0.5 nM • 12. PBMC+LPS (5 ug/ml)+Xiidra® 0.05 nM • 13. PBMC+LPS (5 ug/ml)+Xiidra® 0.005 nM • 14. PBMC+LPS (5 ug/ml)+YY-101 500 nM • 15. PBMC+LPS (5 ug/ml)+YY-101 50 nM • 16. PBMC+LPS (5 ug/ml)+YY-101 5 nM • 17. PBMC+LPS (5 ug/ml)+YY-101 0.5 nM • 18. PBMC+LPS (5 ug/ml)+YY-101 0.05 nM • 19. PBMC+LPS (5 ug/ml)+YY-101 0.005 nM • 20. PBMC+LPS (5 ug/ml)+YDE-011 500 nM • 21. PBMC+LPS (5 ug/ml)+YDE-011 50 nM • 22. PBMC+LPS (5 ug/ml)+YDE-011 5 nM • 23. PBMC+LPS (5 ug/ml)+YDE-011 0.5 nM • 24. PBMC+LPS (5 ug/ml)+YDE-011 0.05 nM • 25. PBMC+LPS (5 ug/ml)+YDE-011 0.005 nM • 26. PBMC+LPS (5 ug/ml)+YDE-043 500 nM • 27. PBMC+LPS (5 ug/ml)+YDE-043 50 nM • 28. PBMC+LPS (5 ug/ml)+YDE-043 5 nM • 29. PBMC+LPS (5 ug/ml)+YDE-043 0.5 nM • 30. PBMC+LPS (5 ug/ml)+YDE-043 0.05 nM • 31. PBMC+LPS (5 ug/ml)+YDE-043 0.005 nM
Multiplex assay was used to measure 30 cytokines and chemokines. The 1:200 diluted cell supernatant and serial dilution of the standard were dispensed into a 96 well plate at 50 ul/well. Then, the pre-mixed cocktail of antibody-coated magnetic beads was dispensed at 50 ul/well and incubated at room temperature for 2 h in a horizontal orbital microplate shaker at 800±500 rpm. The beads were washed using a magnetic device to prevent loss. The biotin-antibody was dispensed in 50 ul of each well and incubated at room temperature for 1 h in a shaker at 800±500 rpm. After washing, streptavidin-PE was added at 50 ul/well and incubated at room temperature for 30 min in a shaker under the same conditions. Finally, after washing, wash buffer (100 ul/well) was added to the plate and incubated in a shaker for 2 min. The Luminex™ 200 setting were set according to the manufacturer's protocol. The data was calculated with a standard five-parameter logistic nonlinear regression analysis of the data (xPonent software 4.2, USA). Results were presented as concentration (ng/ml or pg/ml).

[1] = PBMC + LPS(5 ug/ml) + test article 0.005 nM
[2] = PBMC + LPS(5 ug/ml) + test article 0.005 nM, single replicates (1st, 2nd, 3rd)
[3] = PBMC + LPS(5 ug/ml) + test article 0.05 nM
[4] = PBMC + LPS(5 ug/ml) + test article 0.05 nM, single replicates (1st, 2nd, 3rd)
[5] = PBMC + LPS(5 ug/ml) + test article 0.5 nM
[6] = PBMC + LPS(5 ug/ml) + test article 0.5 nM, single replicates (1st, 2nd, 3rd)
[7] = PBMC + LPS(5 ug/ml) + test article 5 nM
[8] = PBMC + LPS(5 ug/ml) + test article 5 nM, single replicates (1st, 2nd, 3rd)
[9] = PBMC + LPS(5 ug/ml) + test article 50 nM
[10] = PBMC + LPS(5 ug/ml) + test article 50 nM, single replicates (1st, 2nd, 3rd)
[11] = PBMC + LPS(5 ug/ml) + test article 500 nM
[12] = PBMC + LPS(5 ug/ml) + test article 500 nM, single replicates (1st, 2nd, 3rd)

| Structure (SMILES) | IL-8/CXCL8 Concentration, Mean [1] [pg/mL] | IL-8/CXCL8 Concentration [2] | IL-8/CXCL8 Concentration, Mean [3] [pg/mL] | IL-8/CXCL8 Concentration [4] | IL-8/CXCL8 Concentration, Mean [5] [pg/mL] | IL-8/CXCL8 Concentration [6] | IL-8/CXCL8 Concentration, Mean [7] [pg/mL] | IL-8/CXCL8 Concentration [8] | IL-8/CXCL8 Concentration, Mean [9] [pg/mL] | IL-8/CXCL8 Concentration [10] | IL-8/CXCL8 Concentration, Mean [11] [pg/mL] | IL-8/CXCL8 Concentration [12] | LPS-induced IL-8 (in words) | also measured |
| --- | --- | --- | --- | --- | --- | --- | --- | --- | --- | --- | --- | --- | --- | --- |
| CC(C)C[C@H](NC(=O)CNC(=O)[C@H](CC(C)C)NC(=O)[C@H](CCC(N)=O)NC(=O)CNC(=O)[C@@H]1C[C@@H](O)CN1)C(=O)N[C@@H](C)C(=O)NCC(=O)N1CCC[C@H]1C(=O)N[C@@H](CCCCN)C(=O)O [YDE-011] (H-[Hyp]GQLGLAGPK-OH) | 54720.2 | 55905.6 pg/mL and 51994.7 pg/mL and 56260.2 pg/mL | 61143.7 | 61568.6 pg/mL and 60755.7 pg/mL and 61106.8 pg/mL | 52309.1 | 52927.0 pg/mL and 52269.8 pg/mL and 51730.5 pg/mL | 46534.3 | 45587.7 pg/mL and 43107.6 pg/mL and 50907.7 pg/mL | 46922.1 | 54235.8 pg/mL and 55272.7 pg/mL and 31257.8 pg/mL | 49501.9 | 66288.2 pg/mL and 31741.3 pg/mL and 50476.2 pg/mL | significantly reduced |  |
| CC(C)C[C@H](NC(=O)[C@H](CCC(N)=O)NC(=O)CNC(=O)[C@@H]1C[C@@H](O)CN1)C(=O)NCC(=O)O [YDE-043] (H-[Hyp]GQLG-OH; N-terminus and C-terminus assumed) | 59062.0 | 56206.5 pg/mL and 53607.2 pg/mL and 67372.3 pg/mL | 51146.6 | 48485.5 pg/mL and 53107.5 pg/mL and 51846.7 pg/mL | 52327.4 | 55144.2 pg/mL and 51593.2 pg/mL and 50244.9 pg/mL | 56067.9 | 56540.0 pg/mL and 58269.2 pg/mL and 53394.4 pg/mL | 55575.7 | 57759.9 pg/mL and 58638.2 pg/mL and 50329.0 pg/mL | 51601.8 | 51413.7 pg/mL and 49678.2 pg/mL and 53713.6 pg/mL | significantly reduced |  |
| CC(C)C[C@H](NC(=O)CNC(=O)[C@H](CC(=O)O)NC(=O)[C@H](CCC(N)=O)NC(=O)CNC(=O)[C@@H]1C[C@@H](O)CN1)C(=O)N[C@@H](C)C(=O)NCC(=O)N1CCC[C@H]1C(=O)N[C@@H](CCCCN)C(=O)O [YY-101] (H-[Hyp]GQDGLAGPK-OH; N-terminus and C-terminus assumed) | 58481.9 | 61546.6 pg/mL and 56884.9 pg/mL and 57014.3 pg/mL | 59990.6 | 57359.8 pg/mL and 60536.4 pg/mL and 62075.6 pg/mL | 60251.0 | 60909.2 pg/mL and 57900.7 pg/mL and 61943.2 pg/mL | 57315.8 | 55583.6 pg/mL and 55980.8 pg/mL and 60383.1 pg/mL | 54680.4 | 54759.1 pg/mL and 53065.0 pg/mL and 56217.2 pg/mL | 58292.3 | 60492.6 pg/mL and 59945.6 pg/mL and 54438.6 pg/mL | significantly reduced | IL-8/CXCL8 Concentration, Mean (PBMC + test article 0.5 nM, no LPS): 3635.9 pg/mL; IL-8/CXCL8 Concentration (PBMC + test article 0.5 nM, no LPS, single replicates (1st, 2nd)): 1970.8 pg/mL and 5300.9 pg/mL; IL-8/CXCL8 Concentration, Mean (PBMC + test article 5 nM, no LPS): 2809.1 pg/mL; IL-8/CXCL8 Concentration (PBMC + test article 5 nM, no LPS, single replicates (1st, 2nd)): 3848.8 pg/mL and 1769.4 pg/mL; IL-8/CXCL8 Concentration, Mean (PBMC + test article 0.05 uM, no LPS): 8117.7 pg/mL; IL-8/CXCL8 Concentration (PBMC + test article 0.05 uM, no LPS, single replicates (1st, 2nd)): 13586.7 pg/mL and 2648.7 pg/mL; IL-8/CXCL8 Concentration, Mean (PBMC + test article 50 nM, no LPS): 1630.9 pg/mL; IL-8/CXCL8 Concentration (PBMC + test article 50 nM, no LPS, single replicates (1st, 2nd)): 2009.8 pg/mL and 1252.1 pg/mL; IL-8/CXCL8 Concentration, Mean (PBMC + test article 500 nM, no LPS): 1641.8 pg/mL; IL-8/CXCL8 Concentration (PBMC + test article 500 nM, no LPS, single replicates (1st, 2nd)): 1297.1 pg/mL and 1986.4 pg/mL |
